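Grown in 96-well plates, cells were treated for 48 hours with each compound at five concentrations. Insufficient inhibition: endpoint recorded as highest concentration tested. TGI: total growth inhibition.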 Where only a bound is given, the exact number is not on record here.

Drawing on PubChem BioAssay (NCI), this text covers TGI for twelve compounds.

Test systems include RPMI-8226 leukemia; ACHN renal; MOLT-4 leukemia; MDA-MB-231 breast; A549 NSCLC; HCC-2998 colon; SN12C renal; U251 CNS; MDA-N; DU-145 prostate; SK-MEL-5 melanoma; NCI-H226 lung; HOP-62 NSCLC; MALME-3M melanoma; HS 578T breast; SR leukemia; HCT-15 colon; OVCAR-8 ovarian; A498 renal.
Holding throughout (test): NCI anticancer screen, dose series, 48 h

Turning to `N=C1/C(=C/c2ccco2)C(=O)N=C2SC=NN12`, the TGI in the experiment on RPMI-8226 leukemia, in the experiment on ACHN renal, in the experiment on MOLT-4 leukemia, in the experiment on MDA-MB-231 breast, in the experiment with A549 NSCLC and in the experiment with HCC-2998 colon was more than 100 µM throughout. Also, the TGI with SN12C renal, with U251 CNS, with MDA-N, in the experiment with DU-145 prostate, in the experiment on SK-MEL-5 melanoma and in the experiment with NCI-H226 lung was more than 100 µM each time. Also, the TGI in the experiment with HOP-62 NSCLC, in the experiment on MALME-3M melanoma, with HS 578T breast, in the experiment on SR leukemia, in the experiment on HCT-15 colon and with OVCAR-8 ovarian was more than 100 µM each time.

`Cc1cccc(-c2cccc(COCc3cccc(-c4cccc(CO)n4)n3)n2)n1`: the TGI in the experiment on RPMI-8226 leukemia, in the experiment with ACHN renal, with MOLT-4 leukemia, with MDA-MB-231 breast, with A549 NSCLC and in the experiment with HCC-2998 colon was more than 50 µM throughout. Besides, the TGI in the experiment with SN12C renal, in the experiment with U251 CNS, in the experiment with MDA-N, in the experiment on DU-145 prostate, with A498 renal and in the experiment on SK-MEL-5 melanoma was more than 50 µM each time. In addition, the TGI in the experiment with NCI-H226 lung, in the experiment on HOP-62 NSCLC, in the experiment on HS 578T breast, in the experiment with SR leukemia, with HCT-15 colon and with OVCAR-8 ovarian was more than 50 µM in each case.

In the case of `C[C@]12CCC(=O)C=C1CC[C@@H]1[C@@H]2CC[C@]2(C)C(=O)/C(=C/c3ccncc3)C[C@@H]12`, the TGI in the experiment with RPMI-8226 leukemia worked out at 35.2 µM; with ACHN renal it was 30.5 µM; with MOLT-4 leukemia, 64.9 µM; with MDA-MB-231 breast, 31.1 µM; with A549 NSCLC it was 46.5 µM; in the experiment with HCC-2998 colon, 30.9 µM. Also, the TGI with SN12C renal was found to be 39.4 µM; with U251 CNS, 25.7 µM; in the experiment on MDA-N, 54.3 µM; in the experiment on DU-145 prostate, 29.2 µM; in the experiment on SK-MEL-5 melanoma it was 22.1 µM; with NCI-H226 lung, 34.6 µM. The TGI with HOP-62 NSCLC is 32.5 µM; in the experiment with MALME-3M melanoma, 33.8 µM; with HS 578T breast, more than 100 µM; with SR leukemia, 27.1 µM; in the experiment with HCT-15 colon, 48.8 µM; with OVCAR-8 ovarian, 90.2 µM.

With `CC1(C)[C@H]2CC[C@](C)(C2)[C@]1(S)Cc1ccccn1`, the TGI in the experiment on RPMI-8226 leukemia was 93.5 µM; in the experiment on ACHN renal, more than 100 µM; with MOLT-4 leukemia it was 54 µM; in the experiment with MDA-MB-231 breast, more than 100 µM; with A549 NSCLC it was more than 100 µM; in the experiment with HCC-2998 colon, 41.5 µM. The TGI with SN12C renal was more than 100 µM; with U251 CNS, 36.6 µM; in the experiment on MDA-N, more than 100 µM; in the experiment with DU-145 prostate, more than 100 µM; with A498 renal, more than 100 µM; in the experiment on SK-MEL-5 melanoma, 64.3 µM. For the same compound, the TGI was more than 100 µM with HOP-62 NSCLC; more than 100 µM in the experiment with MALME-3M melanoma; more than 100 µM in the experiment with HS 578T breast; 43.2 µM in the experiment on SR leukemia; more than 100 µM in the experiment with HCT-15 colon; 42.6 µM in the experiment on OVCAR-8 ovarian.

Take `CCCCCCCCCCCCCCCCC(=O)NCC(=O)NCC(=O)NC(Cc1ccccc1)C(=O)Oc1ccc([N+](=O)[O-])cc1` (configuration not stated): the TGI is 58.2 µM with RPMI-8226 leukemia; more than 100 µM in the experiment on ACHN renal; 38.7 µM in the experiment with MOLT-4 leukemia; 38.9 µM with MDA-MB-231 breast; 37.3 µM with HCC-2998 colon; 34.6 µM in the experiment on SN12C renal. The TGI is 43.3 µM in the experiment with U251 CNS; more than 100 µM with MDA-N; more than 100 µM in the experiment with DU-145 prostate; more than 100 µM in the experiment with A498 renal; 47.4 µM in the experiment with SK-MEL-5 melanoma; 70 µM in the experiment on NCI-H226 lung. The TGI is more than 100 µM in the experiment with HOP-62 NSCLC; more than 100 µM with HS 578T breast; 51.3 µM with SR leukemia; 34.5 µM with HCT-15 colon; 38.7 µM with OVCAR-8 ovarian.

Consider `O=S(Nc1ccccc1)c1ccccc1Oc1ccccc1` (configuration not stated), for which the TGI in the experiment on RPMI-8226 leukemia was more than 100 µM; with ACHN renal, more than 100 µM; with MOLT-4 leukemia, more than 100 µM; in the experiment on MDA-MB-231 breast, more than 100 µM; with A549 NSCLC it was more than 100 µM; in the experiment on HCC-2998 colon, 87.1 µM. For the same compound, the TGI in the experiment with SN12C renal, in the experiment with U251 CNS, in the experiment on MDA-N, with DU-145 prostate, in the experiment on SK-MEL-5 melanoma and in the experiment with NCI-H226 lung was more than 100 µM throughout. In addition, the TGI was more than 100 µM in the experiment with HOP-62 NSCLC; more than 100 µM in the experiment with MALME-3M melanoma; 19.6 µM in the experiment with HS 578T breast; more than 100 µM in the experiment on SR leukemia; more than 100 µM in the experiment on HCT-15 colon; more than 100 µM in the experiment with OVCAR-8 ovarian.

On to `CCOC(=O)CC[C@H](NC(=O)c1ccc(CNc2nc3cc(C(F)(F)F)ccc3nc2C(=O)OCC)cc1)C(=O)OCC`, for which the TGI was more than 100 µM in the experiment on RPMI-8226 leukemia; more than 93.2 µM with ACHN renal; more than 100 µM in the experiment on MOLT-4 leukemia; more than 48.4 µM with MDA-MB-231 breast; more than 100 µM with A549 NSCLC; more than 100 µM in the experiment on SN12C renal. The TGI with U251 CNS was 18.5 µM; in the experiment on MDA-N, more than 100 µM; in the experiment with DU-145 prostate it was more than 100 µM; in the experiment with A498 renal, more than 100 µM; with SK-MEL-5 melanoma it was more than 66.6 µM; with HOP-62 NSCLC, more than 46 µM. Besides, the TGI in the experiment on MALME-3M melanoma is 50.3 µM; with HS 578T breast, 19.7 µM; in the experiment on SR leukemia, more than 100 µM; in the experiment with HCT-15 colon, more than 100 µM; in the experiment with OVCAR-8 ovarian, more than 100 µM.

As to `CCOC(=O)c1ccc(OCc2nc3cc(C(F)(F)F)ccc3nc2-c2ccccc2)cc1`, the TGI in the experiment on RPMI-8226 leukemia, in the experiment with ACHN renal, in the experiment on MOLT-4 leukemia, in the experiment on MDA-MB-231 breast, in the experiment with A549 NSCLC and in the experiment with HCC-2998 colon was more than 100 µM each time. In addition, the TGI in the experiment on SN12C renal, in the experiment on U251 CNS, in the experiment on MDA-N, in the experiment with DU-145 prostate, in the experiment on A498 renal and in the experiment with SK-MEL-5 melanoma was more than 100 µM throughout. For the same compound, the TGI with NCI-H226 lung, in the experiment on HOP-62 NSCLC, in the experiment on HS 578T breast, with SR leukemia, with HCT-15 colon and in the experiment with OVCAR-8 ovarian was more than 100 µM each time.

With `COc1ccc(OC)c2sc(N3C(=O)/C(=C/c4ccc(SC)cc4)N=C3c3ccccc3)nc12`, the TGI was 63.3 µM in the experiment with RPMI-8226 leukemia; 86.6 µM in the experiment on ACHN renal; 80.5 µM with MOLT-4 leukemia; more than 100 µM in the experiment on MDA-MB-231 breast; 53.9 µM in the experiment with A549 NSCLC; more than 100 µM in the experiment on HCC-2998 colon. Also, the TGI with SN12C renal is 70.2 µM; in the experiment on U251 CNS it was 32.3 µM; in the experiment with MDA-N, 42.5 µM; in the experiment with DU-145 prostate, more than 100 µM; in the experiment with A498 renal it was more than 100 µM; in the experiment on SK-MEL-5 melanoma, 33.8 µM. Besides, the TGI was 40 µM with HOP-62 NSCLC; 60.8 µM with HS 578T breast; 60.6 µM with SR leukemia; more than 100 µM in the experiment with HCT-15 colon; 92.6 µM with OVCAR-8 ovarian.

With `COc1c(C(=O)/C(=N/Nc2cccc(Cl)c2)C(C)=O)c(O)c(OC)c2occc12`, the TGI in the experiment with RPMI-8226 leukemia, with ACHN renal, with MOLT-4 leukemia, in the experiment on MDA-MB-231 breast, in the experiment with A549 NSCLC and in the experiment on HCC-2998 colon was more than 100 µM in each case. Besides, the TGI with SN12C renal, with U251 CNS, in the experiment on MDA-N, in the experiment with DU-145 prostate, in the experiment with SK-MEL-5 melanoma and in the experiment with NCI-H226 lung was more than 100 µM throughout. Moreover, the TGI in the experiment with HOP-62 NSCLC, in the experiment on MALME-3M melanoma, with HS 578T breast, in the experiment with SR leukemia, with HCT-15 colon and in the experiment on OVCAR-8 ovarian was more than 100 µM in each case.

For the compound `O=P1(N(CCCl)CCCl)Oc2c(Cl)cc(Cl)c(Cl)c2Cc2c(Cl)c(Cl)cc(Cl)c2O1`, the TGI in the experiment on RPMI-8226 leukemia, in the experiment with ACHN renal, with MOLT-4 leukemia, in the experiment with MDA-MB-231 breast, in the experiment on A549 NSCLC and with HCC-2998 colon was more than 100 µM each time. For the same compound, the TGI with SN12C renal, in the experiment on U251 CNS, in the experiment on MDA-N, in the experiment on DU-145 prostate, in the experiment on A498 renal and with SK-MEL-5 melanoma was more than 100 µM in each case. The TGI in the experiment on NCI-H226 lung, with HOP-62 NSCLC, with HS 578T breast, in the experiment on SR leukemia, in the experiment on HCT-15 colon and in the experiment on OVCAR-8 ovarian was more than 100 µM throughout.

Turning to `CC1(C)CC(=O)c2c([nH]c(=S)c(C#N)c2-c2ccc(Br)cc2)C1`, the TGI in the experiment with ACHN renal, in the experiment on MDA-MB-231 breast, in the experiment on A549 NSCLC, with HCC-2998 colon, in the experiment with SN12C renal and in the experiment with U251 CNS was more than 100 µM throughout. In addition, the TGI in the experiment with MDA-N, in the experiment with DU-145 prostate, with A498 renal, in the experiment on SK-MEL-5 melanoma, in the experiment with NCI-H226 lung and in the experiment on HOP-62 NSCLC was more than 100 µM in each case. The TGI in the experiment with MALME-3M melanoma was more than 100 µM; in the experiment with HS 578T breast, more than 100 µM; with SR leukemia it was 51.7 µM; in the experiment on HCT-15 colon, more than 100 µM; with OVCAR-8 ovarian it was more than 100 µM.
